In one experiment the test system is Aedes aegypti. Nature of the experiment: Warm Body assay: repellent efficacy on mosquitoes. Type of experiment: in vivo. The conditions noted are these: 100 μL on warm body. The method, then:
a) Warm Body Assay: Small-Scale Test Used to Screen the Repellent Efficacy on Mosquitoes at Different Concentrations. […] Anopheles gambiae is also a model organism as it is anthropophilic and transmits malaria. The controlling effect according to the present invention was assessed using an adapted Warm Body assay as defined in Kröber T, Kessler S, FreiJ, Bourquin M, Guerin P M. 2010. J Am Mosq Control Assoc. 26:381-386. In this in-vitro assay the number of mosquito landing on a warm body, simulating an attractive host treated with the tested stimuli, was measured in order to assess the repellence effect. The published protocol has been adapted as the switch from Anopheles gambiae to Aedes aegypti led to a decrease of mosquitoes placed in the tested cage due to the size difference (i.e. 30 mosquitoes instead of 50) and to an increase of lighting since Ae. aegypti is a diurnal mosquitoes (i.e. 150 lux instead of 4 lux). On the sandblasted glass Petri dish covering the warm body (28.3 cm^2), 100 μL of the compounds diluted at 5-8 concentrations in ethanol was applied. The number of mosquito landing on the warm body was counted for each stimulus and pure ethanol (solvent) as control. The stimuli tested were stim A (3-(4-isopropyl-2-methylphenyl)propanal at 96%) and stim B (a composition of matter comprising 3-(4-isopropyl-2-methylphenyl)propanal, 3-(2-isopropyl-4-methylphenyl)propanal and 3-(2-methyl-5-propan-2-ylphenyl)propanal at 88%, 5% and 2%, respectively) diluted in ethanol. Five to eight concentrations were assessed on each stimulus, missing data points mentioned as n.d. The mean number of mosquito landings with the solvent only (0 mg/mL) is equal to 64.5±10.1 landings in two minutes.

The test system of the next experiment is Ixodes ricinus. Nature of the experiment: Warm Plate assay: repellent efficacy on ticks. In kind it is in vivo. As to conditions: for Percentage of repellence of ticks Ixodes ricinus on the warm plate: n = 12, last stage nymphs. The method, then:
b) Warm Plate Assay: Small-Scale Test Used to Screen the Repellent Efficacy on Ticks at Different Concentrations.
Repellent efficacy of the different compounds was assessed against the sheep tick, Ixodes ricinus L that can transmit both bacterial and viral pathogens. I. ricinus is one of the recommended model organisms mentioned by the Guidance on the European […] [Vol IL, Efficacy—Assessment & Evaluation (Parts B+C), v6.0, Août 2023]. Observations of repellent efficacy were made on last stage nymphs.
The repellent efficacy was assessed using the protocol of the in-vitro Warm Plate Assay as defined in Kröber T, Bourquin M, Guerin P M. 2013. Pestic. Biochem. Phys. 107(2):160-168.
Ticks had the choice of crossing a zone with 3-(4-isopropyl-2-methylphenyl)propanal (96%) applied or to stay on their refuge without any compound applied. To motivate ticks' movement, the warm plate was heated at 33° C. (to mimic vertebrate skin temperature) and hold in a favourable environment (23° C., 85% RH).
The stimulus tested was stim A (3-(4-isopropyl-2-methylphenyl)propanal at 96%) diluted in ethanol. Twelve different ticks were tested for each of the four concentrations.

Take `Cc1cc(C(C)C)ccc1CCC=O` [Stim A, 3-(4-isopropyl-2-methylphenyl)propanal]: the “Percentage of repellence of mosquitoes Aedes aegypti landing on the warm body” value with Aedes aegypti (0.0032 mg/mL in ethanol) is 20%; in the experiment with Aedes aegypti (0.016 mg/mL in ethanol) it was 41%; with Aedes aegypti (0.08 mg/mL in ethanol), 40%; in the experiment on Aedes aegypti (0.4 mg/mL in ethanol) it was 63%; with Aedes aegypti (2 mg/mL in ethanol), 71%; in the experiment on Aedes aegypti (10 mg/mL in ethanol), 90%. For the same compound, the “Percentage of repellence of ticks Ixodes ricinus on the warm plate” value with Ixodes ricinus (0.4 mg/mL in ethanol) is recorded as 25.0%; with Ixodes ricinus (2 mg/mL in ethanol), 100.0%; with Ixodes ricinus (10 mg/mL in ethanol), 100.0%. For the same compound, in the experiment on Ixodes ricinus (as soon as 0.02% applied on the warm plate), the “repellence of ticks Ixodes ricinus on the warm plate (in words)” value is reported as “All ticks were repelled”.

The values are drawn from patent publication US20260085253A1, “LILY OF THE VALLEY ODORANT” (Firmenich SA, priority 2022, published 2026).
